This is an account of results in US10017462B1, “Antimicrobial poly(guanylurea)s” (THE FLORIDA INTERNATIONAL UNIVERSITY BOARD OF TRUSTEES, priority 2018, dated 2018).

For this experiment, the system named is methicillin-resistant Staphylococcus aureus (MRSA) (ATCC BAA-44). The experiment can be described thus: MIC assay, broth microdilution with resazurin. The class given is cell-based. As to conditions: Mueller Hinton broth, 20-44 h at 37° C. On the technique in general: In broth dilution the organism is exposed to a series of concentrations in liquid medium.

≈ marks a conversion by molar mass, not a printed value.

Description: Antimicrobial assay antimicrobial activities of the polymers were determined by the minimal inhibitory concentration (MIC) assay. MIC of Mycobacterium smegmatis (ATCC 700084), Shigella flexneri (ATCC 9199), Staphylococcus aureus (ATCC 14775) and methicillin-resistant Staphylococcus aureus (MRSA) (ATCC BAA-44) were determined by the standard broth microdilution method with slight modification. In brief, different bacteria were grown in either Mueller Hinton broth (MHB) or 7H9 broth (M. smegmatis) overnight at 37° C. Next day, the cells were first OD600 adjusted to 0.1 and then further diluted 1:100 in the respective media and 50 μL (˜10^5 CFU) is added to 96 well-microplate wells containing 50 μL serial dilutions of the polymers. The plates were incubated for 20-44 h at 37° C. MIC is defined as the lowest concentration of the polymer that inhibits the visual growth of the bacteria. To aid in determining the visual growth of bacteria, resazurin, a red-ox dye is added to the wells at a final concentration of 0.02% and incubated for 4-8 h at 37° C. In the presence of viable cells, resazurin (blue) is reduced to resorfurin (pink) along with an increase in fluorescence. MIC was calculated as the lowest concentration of the polymer that prevented the color change and reduced the fluorescence (Ex 540, Em 590 nm) by 90% when compared to the control wells containing no inhibitor. […]

Turning to `O=C(O)c1cn(C2CC2)c2cc(N3CCNCC3)c(F)cc2c1=O` [Ciprofloxacin], the “MIC MRSA” value was 20 µg/mL (≈ 60.4 µM).
